Measurements as given in patent publication US12679811B2, “Microcrystalline diketopiperazine compositions and methods” (MannKind Corporation, priority 2013, dated 2026).

Assay: Solubility of FDKP as a function of pH
Type: physicochemical

With `O=C(O)/C=C/C(=O)NCCCCC1NC(=O)C(CCCCNC(=O)/C=C/C(=O)O)NC1=O` (centres unmarked) [FDKP, 3,6-bis(N-fumaryl-4-aminobutyl)-2,5-diketopiperazine] the solubility (at neutral or basic pH) was “readily soluble” and the solubility (in acid) was “low solubility”.
